Data reported in patent US20020165133A1 (priority 2001, published 2002).
“Also recorded” adds a separate entry of the source.

System: C57BL/6 mice
Test: Test of hair regrowth effects on the shaved backs of C57BL/6 mice
Format: in vivo
Conditions: C57BL/6 mice (female), applied over hair removed area once a day for 30 days, 100 μl (0.05% w/v)
From the text: C57BL/6 mice (female), 42˜49 days old, were used in this test.
The mice were removed of hair on their backs using an electric shaver, and weighed. The mice were divided into several groups with weights equally distributed. […] The degree of hair growth were judged by naked eye and the back sides of the mice were photographed.

[Leu^4]cyclosporin A [M21]
hair growth effect (degree of hair growth judged by naked eye): no significant effect; also recorded: no hair growth effect
